From ChEMBL document CHEMBL2169789, “Potent HGF/c-Met axis inhibitors from Eucalyptus globulus: the coupling of phloroglucinol and sesquiterpenoid is essential for the activity” (J Med Chem, 2012)
Each block holds one compound with its values, some of them ahead of it. Active and inactive are the calls of the source. The rule behind the calls is not given here.

What was measured:
[1] = molecular target: T1, Hepatocyte growth factor receptor (Homo sapiens, UniProt P08581); experiment: Inhibition of c-MET assessed as inhibition of HGF-induced phosphorylation at 5 uM by Western blotting analysis
T1 sequence (P08581 whole entry): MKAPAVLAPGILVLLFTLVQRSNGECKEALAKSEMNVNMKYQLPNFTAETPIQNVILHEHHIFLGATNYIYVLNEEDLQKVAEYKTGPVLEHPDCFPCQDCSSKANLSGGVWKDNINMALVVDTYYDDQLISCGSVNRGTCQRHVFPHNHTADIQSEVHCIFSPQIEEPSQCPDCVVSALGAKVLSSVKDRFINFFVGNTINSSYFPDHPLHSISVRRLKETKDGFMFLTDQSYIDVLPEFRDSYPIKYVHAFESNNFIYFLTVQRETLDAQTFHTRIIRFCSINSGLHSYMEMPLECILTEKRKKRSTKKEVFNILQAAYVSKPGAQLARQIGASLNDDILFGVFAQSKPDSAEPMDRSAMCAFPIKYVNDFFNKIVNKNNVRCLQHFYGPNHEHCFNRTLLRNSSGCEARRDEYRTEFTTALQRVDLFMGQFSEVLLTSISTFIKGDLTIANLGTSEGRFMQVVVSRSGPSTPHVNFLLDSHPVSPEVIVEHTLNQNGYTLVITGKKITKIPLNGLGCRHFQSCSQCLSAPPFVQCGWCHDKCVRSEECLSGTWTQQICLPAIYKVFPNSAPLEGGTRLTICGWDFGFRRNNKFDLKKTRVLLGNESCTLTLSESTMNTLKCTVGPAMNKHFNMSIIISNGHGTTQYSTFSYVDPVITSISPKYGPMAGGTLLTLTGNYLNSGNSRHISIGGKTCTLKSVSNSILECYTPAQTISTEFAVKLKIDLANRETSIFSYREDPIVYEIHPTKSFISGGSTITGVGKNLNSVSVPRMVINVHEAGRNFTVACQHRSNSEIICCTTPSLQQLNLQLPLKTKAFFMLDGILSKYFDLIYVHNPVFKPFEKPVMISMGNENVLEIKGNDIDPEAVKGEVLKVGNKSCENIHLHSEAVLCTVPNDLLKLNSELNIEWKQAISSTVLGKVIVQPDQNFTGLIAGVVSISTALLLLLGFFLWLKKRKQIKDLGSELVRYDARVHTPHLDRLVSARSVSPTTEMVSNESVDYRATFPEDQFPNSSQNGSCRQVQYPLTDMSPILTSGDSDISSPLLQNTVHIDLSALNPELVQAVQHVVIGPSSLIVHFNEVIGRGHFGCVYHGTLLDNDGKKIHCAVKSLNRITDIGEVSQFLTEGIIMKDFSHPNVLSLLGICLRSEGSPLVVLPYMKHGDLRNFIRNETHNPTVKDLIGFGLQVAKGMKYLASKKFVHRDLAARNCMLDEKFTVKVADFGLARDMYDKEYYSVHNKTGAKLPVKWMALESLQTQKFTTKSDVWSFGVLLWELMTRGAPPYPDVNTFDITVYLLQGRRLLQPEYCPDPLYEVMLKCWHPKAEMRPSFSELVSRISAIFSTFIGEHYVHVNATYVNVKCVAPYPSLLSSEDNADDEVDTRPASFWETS

[2] = molecular target: Hepatocyte growth factor receptor (Canis lupus familiaris) (UniProt Q75ZY9); experiment: Inhibition of c-MET in MDCK cells assessed as inhibition of HGF-induced cell motility by wound healing assay; format: cell-based
Sequence of Hepatocyte growth factor receptor (Canis lupus familiaris) (Q75ZY9 whole entry): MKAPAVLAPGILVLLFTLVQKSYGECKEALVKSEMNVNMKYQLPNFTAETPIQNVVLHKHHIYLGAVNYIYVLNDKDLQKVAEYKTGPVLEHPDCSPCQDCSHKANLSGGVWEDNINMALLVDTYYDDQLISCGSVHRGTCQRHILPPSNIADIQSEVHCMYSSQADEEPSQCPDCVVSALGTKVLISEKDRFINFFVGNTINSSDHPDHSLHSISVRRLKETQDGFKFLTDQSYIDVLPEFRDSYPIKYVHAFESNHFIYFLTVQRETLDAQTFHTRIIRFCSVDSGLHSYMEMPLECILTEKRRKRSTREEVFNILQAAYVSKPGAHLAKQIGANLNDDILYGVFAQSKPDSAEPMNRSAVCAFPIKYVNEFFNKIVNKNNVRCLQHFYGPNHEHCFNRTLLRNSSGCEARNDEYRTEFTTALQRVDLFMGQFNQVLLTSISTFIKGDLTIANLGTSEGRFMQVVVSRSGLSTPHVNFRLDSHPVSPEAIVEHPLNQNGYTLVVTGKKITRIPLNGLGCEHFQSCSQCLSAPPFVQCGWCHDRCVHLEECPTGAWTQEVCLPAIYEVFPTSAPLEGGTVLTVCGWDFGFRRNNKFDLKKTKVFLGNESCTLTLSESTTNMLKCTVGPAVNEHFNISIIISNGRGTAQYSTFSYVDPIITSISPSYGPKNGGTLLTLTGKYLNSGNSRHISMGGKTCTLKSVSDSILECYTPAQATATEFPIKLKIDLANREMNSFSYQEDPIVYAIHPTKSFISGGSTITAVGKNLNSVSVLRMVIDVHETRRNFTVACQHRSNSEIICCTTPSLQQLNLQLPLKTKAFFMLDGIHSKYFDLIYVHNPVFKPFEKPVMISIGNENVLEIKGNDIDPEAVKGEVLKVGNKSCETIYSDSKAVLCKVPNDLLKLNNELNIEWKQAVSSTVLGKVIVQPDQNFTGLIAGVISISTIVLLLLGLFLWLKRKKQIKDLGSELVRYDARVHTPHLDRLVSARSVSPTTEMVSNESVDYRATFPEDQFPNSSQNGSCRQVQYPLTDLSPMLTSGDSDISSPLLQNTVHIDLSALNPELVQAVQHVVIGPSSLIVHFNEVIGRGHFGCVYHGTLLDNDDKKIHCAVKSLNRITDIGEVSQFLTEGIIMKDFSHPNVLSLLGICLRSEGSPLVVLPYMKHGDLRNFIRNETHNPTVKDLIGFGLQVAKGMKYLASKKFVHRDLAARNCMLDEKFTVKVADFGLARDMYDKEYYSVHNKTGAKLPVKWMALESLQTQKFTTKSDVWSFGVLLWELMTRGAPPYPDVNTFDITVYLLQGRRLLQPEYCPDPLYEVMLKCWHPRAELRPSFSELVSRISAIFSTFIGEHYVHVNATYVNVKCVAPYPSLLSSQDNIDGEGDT

[3] = molecular target: Hepatocyte growth factor receptor (Canis lupus familiaris) (UniProt Q75ZY9); experiment: Inhibition of c-MET in MDCK cells assessed as inhibition of HGF-induced cell motility at 10 uM by wound healing assay; format: cell-based
[4] = molecular target: Hepatocyte growth factor receptor (Canis lupus familiaris) (UniProt Q75ZY9); experiment: Inhibition of c-MET in MDCK cells assessed as inhibition of HGF-induced urokinase activity at 10 uM after 24 hrs; format: cell-based
[5] = molecular target: Hepatocyte growth factor receptor (Canis lupus familiaris) (UniProt Q75ZY9); experiment: Inhibition of HGF-induced phosphorylation of c-MET in MDCK cells at 5 uM after 2 hrs by Western blotting analysis; format: cell-based
[6] = molecular target: Hepatocyte growth factor receptor (Canis lupus familiaris) (UniProt Q75ZY9); experiment: Inhibition of c-MET in MDCK cells assessed as inhibition of HGF-induced cell scattering after 24 hrs by microscopic analysis; format: cell-based
[7] = molecular target: Hepatocyte growth factor receptor (Canis lupus familiaris) (UniProt Q75ZY9); experiment: Inhibition of c-MET in MDCK cells assessed as inhibition of HGF-induced branching morphogenesis after 5 days by microscopic analysis; format: cell-based
[8] = molecular target: T1, Hepatocyte growth factor receptor; experiment: Inhibition of HGF-induced phosphorylation of c-MET in human NCI-H441 cells after 2 hrs by Western blotting analysis; format: cell-based
[9] = molecular target: T1, Hepatocyte growth factor receptor; experiment: Inhibition of HGF-induced phosphorylation of c-MET in human NCI-H441 cells at 5 uM after 2 hrs by Western blotting analysis; format: cell-based
[10] = molecular target: T1, Hepatocyte growth factor receptor; experiment: Inhibition of c-MET by ELISA assay
[11] = molecular target: Hepatocyte growth factor receptor (Canis lupus familiaris) (UniProt Q75ZY9); experiment: Inhibition of c-MET in MDCK cells assessed as inhibition of HGF-induced cell scattering at 10 uM after 24 hrs by microscopic analysis; format: cell-based
[12] = molecular target: T1, Hepatocyte growth factor receptor; experiment: Inhibition of HGF-induced phosphorylation of c-MET in human DU145 cells after 2 hrs by Western blotting analysis; format: cell-based; conditions: DU-145
[13] = molecular target: Hepatocyte growth factor receptor (Canis lupus familiaris) (UniProt Q75ZY9); experiment: Inhibition of HGF-induced phosphorylation of c-MET in MDCK cells after 2 hrs by Western blotting analysis; format: cell-based
[14] = molecular target: T1, Hepatocyte growth factor receptor; experiment: Inhibition of HGF-induced phosphorylation of c-MET in human A549 cells after 2 hrs by Western blotting analysis; format: cell-based
[15] = molecular target: Hepatocyte growth factor receptor (Canis lupus familiaris) (UniProt Q75ZY9); experiment: Inhibition of c-MET in MDCK cells assessed as inhibition of HGF-induced urokinase activity after 24 hrs; format: cell-based
[16] = molecular target: Hepatocyte growth factor receptor (Mus musculus) (UniProt P16056); experiment: Inhibition of c-MET in mouse NIH3T3 cells assessed as reduction of TPR-Met phosphorylation at 20 uM after 2 hrs by Western blotting analysis; format: cell-based
Sequence of Hepatocyte growth factor receptor (Mus musculus) (P16056 whole entry): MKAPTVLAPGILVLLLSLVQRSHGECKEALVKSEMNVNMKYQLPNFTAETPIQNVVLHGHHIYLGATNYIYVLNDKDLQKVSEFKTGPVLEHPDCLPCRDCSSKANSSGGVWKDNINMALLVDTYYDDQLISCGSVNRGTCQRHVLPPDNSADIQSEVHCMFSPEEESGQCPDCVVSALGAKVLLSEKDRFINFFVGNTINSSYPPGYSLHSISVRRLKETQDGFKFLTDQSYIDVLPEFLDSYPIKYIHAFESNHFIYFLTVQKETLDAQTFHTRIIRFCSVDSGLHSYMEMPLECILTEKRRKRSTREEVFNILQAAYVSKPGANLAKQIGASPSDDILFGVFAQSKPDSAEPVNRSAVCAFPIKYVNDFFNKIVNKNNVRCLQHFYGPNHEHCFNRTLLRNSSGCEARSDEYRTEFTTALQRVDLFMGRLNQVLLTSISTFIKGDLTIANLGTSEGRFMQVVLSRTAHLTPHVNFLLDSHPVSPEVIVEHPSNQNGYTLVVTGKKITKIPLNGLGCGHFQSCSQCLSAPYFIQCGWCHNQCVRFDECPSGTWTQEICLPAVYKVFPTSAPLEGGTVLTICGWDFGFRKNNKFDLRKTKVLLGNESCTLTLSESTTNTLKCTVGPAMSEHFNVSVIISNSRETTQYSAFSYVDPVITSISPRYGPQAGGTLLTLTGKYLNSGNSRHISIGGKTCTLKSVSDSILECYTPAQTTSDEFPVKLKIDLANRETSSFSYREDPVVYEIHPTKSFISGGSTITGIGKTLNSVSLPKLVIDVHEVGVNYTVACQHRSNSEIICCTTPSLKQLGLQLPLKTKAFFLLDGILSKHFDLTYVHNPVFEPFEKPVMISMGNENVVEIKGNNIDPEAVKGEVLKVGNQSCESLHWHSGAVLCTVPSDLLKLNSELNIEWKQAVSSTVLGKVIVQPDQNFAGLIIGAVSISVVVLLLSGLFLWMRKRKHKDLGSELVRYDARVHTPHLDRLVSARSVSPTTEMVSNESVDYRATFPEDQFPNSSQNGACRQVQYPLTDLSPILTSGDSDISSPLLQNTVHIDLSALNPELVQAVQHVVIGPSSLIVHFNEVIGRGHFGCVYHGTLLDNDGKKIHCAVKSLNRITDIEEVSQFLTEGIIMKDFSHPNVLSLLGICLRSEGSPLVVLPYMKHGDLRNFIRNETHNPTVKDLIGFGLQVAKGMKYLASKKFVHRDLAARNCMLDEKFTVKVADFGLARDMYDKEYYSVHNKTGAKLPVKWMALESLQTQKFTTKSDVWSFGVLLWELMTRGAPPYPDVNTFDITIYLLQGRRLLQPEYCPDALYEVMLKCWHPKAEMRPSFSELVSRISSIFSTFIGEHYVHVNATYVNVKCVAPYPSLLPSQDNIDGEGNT

[17] = molecular target: T1, Hepatocyte growth factor receptor; experiment: Inhibition of c-MET in human MKN45 cells assessed as reduction of phosphorylation at 20 uM after 2 hrs by Western blotting analysis; format: cell-based; conditions: MKN-45
[18] = molecular target: T1, Hepatocyte growth factor receptor; experiment: Inhibition of HGF-induced phosphorylation of c-MET in human DU145 cells at 5 uM after 2 hrs by Western blotting analysis; format: cell-based; conditions: DU-145
[19] = molecular target: T1, Hepatocyte growth factor receptor; experiment: Inhibition of HGF-induced phosphorylation of c-MET in human A549 cells at 5 uM after 2 hrs by Western blotting analysis; format: cell-based

SMILES: CC(C)CC(=O)c1c(O)c(C=O)c(O)c(C=O)c1O
inhibition [1]: inactive

SMILES: CC(C)C[C@@H](c1c(O)c(C=O)c(O)c(C=O)c1O)[C@@]1(C)CC[C@@H]2[C@@H]1[C@H]1[C@@H](CC[C@@]2(C)O)C1(C)C
inhibition [1]: Active

SMILES: Cc1c(O)c(C=O)c(O)c(C(=O)CC(C)C)c1O
inhibition [1]: inactive

SMILES: CC(C)C[C@H](c1c(O)c(C=O)c(O)c(C=O)c1O)[C@@]1(C)CC[C@@H]2[C@@H]1[C@H]1[C@@H](CC[C@@]2(C)O)C1(C)C
inhibition [1]: Active

The remaining lines, values ahead:

inhibition [1]: inactive
SMILES: C[C@@H]1CC[C@@H]2[C@@H]1[C@H]1[C@@H](CC[C@@]2(C)O)C1(C)C

inhibition [1]: inactive
SMILES: CC1(C)[C@H]2[C@H]3[C@@H](CC[C@]3(C)O)[C@](C)(O)CC[C@H]21

inhibition [2]: Dose-dependent effect
inhibition [3]: Active
inhibition [4]: 80%
inhibition [5]: > 50%
inhibition [6]: Dose-dependent effect
inhibition [7]: Active
inhibition [8]: Dose-dependent effect
inhibition [9]: > 50%
IC50 [10]: > 50 µM
inhibition [11]: Active
inhibition [12]: Dose-dependent effect
inhibition [13]: Dose-dependent effect
inhibition [14]: Dose-dependent effect
inhibition [15]: Dose-dependent effect
inhibition [16]: inactive
inhibition [1]: Active
inhibition [17]: inactive
inhibition [18]: > 50%
inhibition [19]: > 50%
SMILES: CC(C)CC(=O)c1c(O)c(C=O)c(O)c(C[C@@]2(C)CC[C@@H]3[C@@H]2[C@H]2[C@@H](CC[C@@]3(C)O)C2(C)C)c1O [EUCALYPTIN A]
